For the test, the target named is T1, hGIP-R (Homo sapiens, UniProt P48546).
T1 construct: expressed in transfected cells; host or cells: HEK-293 clonal cell lines
T1 sequence (P48546 22-466): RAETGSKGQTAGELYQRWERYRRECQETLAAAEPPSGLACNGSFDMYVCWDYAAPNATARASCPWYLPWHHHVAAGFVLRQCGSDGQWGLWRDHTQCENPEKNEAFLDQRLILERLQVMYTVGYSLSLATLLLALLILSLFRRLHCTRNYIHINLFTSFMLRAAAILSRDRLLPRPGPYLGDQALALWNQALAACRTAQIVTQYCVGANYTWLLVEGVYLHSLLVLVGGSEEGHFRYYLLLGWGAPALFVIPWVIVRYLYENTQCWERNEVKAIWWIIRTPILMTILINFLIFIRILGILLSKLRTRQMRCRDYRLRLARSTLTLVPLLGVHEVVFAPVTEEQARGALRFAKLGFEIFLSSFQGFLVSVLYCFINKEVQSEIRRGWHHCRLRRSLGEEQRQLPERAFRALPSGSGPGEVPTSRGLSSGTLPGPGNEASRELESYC
Description: Functional hGIP-R Assay (cAMP formation, HTRF). It is filed as cell-based. Conditions: for Emax: cAMP efficacy, percent of maximal response to GIP(1-42)OH, 37° C., 0.1% bovine casein, arithmetic mean ± SEM; for EC50: cAMP potency, HEK-293 cells expressing hGIP-R, incubated at 37° C. in the presence of 0.1% bovine casein, geometric mean, read-out: Human GIP-R EC50, nM (SEM, n). Put shortly:
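HEK-293 cells expressing hGIP-R were given a 20-point compound series in DMEM with 0.1% casein, 250 μM IBMX, 1% DMSO, 30 min at 37 °C. cAMP was read by HTRF against a standard curve, expressed as % of human GIP (1-42) OH maximum; EC50 and Emax came from four-parameter fits.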

Regarding `Cc1cn2cc(-c3ccc([C@H]4C[C@@]45CCN([C@H](Cc4cnn(C(F)F)c4)C(=O)NC(C)(C)Cn4nc(C(F)(F)F)cc4-c4ccc(=O)[nH]n4)C5=O)c(Cl)c3)cnc2n1` [Example 148, (R)-2-((1S,3R)-1-(2-Chloro-4-(2-methylimidazo[1,2-a]pyrimidin-6-yl)phenyl)-4-oxo-5-azaspiro[2.4]heptan-5-yl)-3-(1-(difluoromethyl)-1H-pyrazol-4-yl)-N-(2-methyl-1-(5-(6-oxo-1,6-dihydropyridazin-3-yl)-3-(trifluoromethyl)-1H-pyrazol-1-yl)propan-2-yl)propanamide], the Emax turned out to be 74.4 ± 2.94% and the EC50 is 1.13 nM.
On the same counts, the results for `Cc1cn2cc(-c3ccc([C@H]4C[C@@]45CCN([C@H](Cc4cnn(C(F)F)c4)C(=O)NC(C)(C)Cn4nc(C(F)(F)F)cc4-c4ccc(=O)[nH]n4)C5=O)c(F)c3)cnc2n1` [Example 149, (R)-3-(1-(Difluoromethyl)-1H-pyrazol-4-yl)-2-((1S,3R)-1-(2-fluoro-4-(2-methylimidazo[1,2-a]pyrimidin-6-yl)phenyl)-4-oxo-5-azaspiro[2.4]heptan-5-yl)-N-(2-methyl-1-(5-(6-oxo-1,6-dihydropyridazin-3-yl)-3-(trifluoromethyl)-1H-pyrazol-1-yl)propan-2-yl)propanamide] are 73.2 ± 2.43% and 5.57 nM.
For `Cc1cn2cc(-c3ccc([C@H]4C[C@@]45CCN([C@H](Cc4cnn(C(F)F)c4)C(=O)NC(C)(C)Cn4nc(C(F)(F)F)cc4-c4ccc(=O)n(COP(=O)(O)O)n4)C5=O)c(Cl)c3)cnc2n1` [Example 150, (3-(1-(2-((R)-2-((1S,3R)-1-(2-Chloro-4-(2-methylimidazo[1,2-a]pyrimidin-6-yl)phenyl)-4-oxo-5-azaspiro[2.4]heptan-5-yl)-3-(1-(difluoromethyl)-1H-pyrazol-4-yl)propanamido)-2-methylpropyl)-3-(trifluoromethyl)-1H-pyrazol-5-yl)-6-oxopyridazin-1 (6H)-yl)methyl dihydrogen phosphate], in that order: 89.5 ± 6.21% and 2.06 nM.
On the same counts, the results for `Cc1cn2cc(-c3ccc([C@H]4C[C@@]45CCN([C@H](Cc4cnn(C(F)F)c4)C(=O)NC(C)(C)Cn4nc(C(F)(F)F)cc4-c4ccc(=O)n(COP(=O)(O)O)n4)C5=O)c(F)c3)cnc2n1` [Example 151, (3-(1-(2-((R)-3-(1-(Difluoromethyl)-1H-pyrazol-4-yl)-2-((1S,3R)-1-(2-fluoro-4-(2-methylimidazo[1,2-a]pyrimidin-6-yl)phenyl)-4-oxo-5-azaspiro[2.4]heptan-5-yl)propanamido)-2-methylpropyl)-3-(trifluoromethyl)-1H-pyrazol-5-yl)-6-oxopyridazin-1 (6H)-yl)methyl dihydrogen phosphate] are 106 ± 2.17% and 16.9 nM.
On to `[2H]C([2H])([2H])n1cc(C[C@H](C(=O)NC(C)(C)Cn2nc(C(F)(F)F)cc2-c2cnc(C)nc2)N2CC[C@@]3(C[C@@H]3c3ccc(-c4cnc5nc(C)cn5c4)cc3Cl)C2=O)cn1` [Example 152, (R)-2-((1S,3R)-1-(2-Chloro-4-(2-methylimidazo[1,2-a]pyrimidin-6-yl)phenyl)-4-oxo-5-azaspiro[2.4]heptan-5-yl)-N-(2-methyl-1-(5-(2-methylpyrimidin-5-yl)-3-(trifluoromethyl)-1H-pyrazol-1-yl)propan-2-yl)-3-(1-(methyl-d3)-1H-pyrazol-4-yl)propanamide], for which the maximum response (Emax) came out at 87.2 ± 1.03% and the concentration giving a half-maximal response (EC50) was determined as 1.73 nM.
As for `Cn1cc(-c2ccc([C@H]3C[C@@]34CCN([C@H](Cc3cnn(C(F)F)c3)C(=O)NC(C)(C)Cn3nc(C(F)(F)F)cc3-c3cn[nH]n3)C4=O)c(Cl)c2)cnc1=O` [Example 154, (R)—N-(1-(5-(2H-1,2,3-Triazol-4-yl)-3-(trifluoromethyl)-1H-pyrazol-1-yl)-2-methylpropan-2-yl)-2-((1S,3R)-1-(2-chloro-4-(1-methyl-2-oxo-1,2-dihydropyrimidin-5-yl)phenyl)-4-oxo-5-azaspiro[2.4]heptan-5-yl)-3-(1-(difluoromethyl)-1H-pyrazol-4-yl)propanamide], the Emax is 74.2 ± 2.83% and the half-maximal effective concentration (EC50) was 5.24 nM.
For `Cn1cc(-c2cc(C(F)(F)F)nn2CC(C)(C)NC(=O)[C@@H](Cc2cnn(C(F)F)c2)NC(=O)[C@H]2C[C@@H]2c2nc3c(Cl)nn(C)c3cc2C#N)cc(F)c1=O` [Example 155, (1S,2S)-2-(3-Chloro-6-cyano-1-methyl-1H-pyrazolo[4,3-b]pyridin-5-yl)-N—((R)-3-(1-(difluoromethyl)-1H-pyrazol-4-yl)-1-((1-(5-(5-fluoro-1-methyl-6-oxo-1,6-dihydropyridin-3-yl)-3-(trifluoromethyl)-1H-pyrazol-1-yl)-2-methylpropan-2-yl)amino)-1-oxopropan-2-yl)cyclopropane-1-carboxamide], in that order: 78.1 ± 4.92% and 118 nM.
For `Cn1cc(-c2cc(C(F)(F)F)nn2CC(C)(C)NC(=O)[C@@H](Cc2cnn(C(F)F)c2)NC(=O)[C@H]2C[C@@H]2c2nc3cnn(C)c3cc2F)cc(F)c1=O` [Example 157, (1S,2S)-N-((R)-3-(1-(Difluoromethyl)-1H-pyrazol-4-yl)-1-((1-(5-(5-fluoro-1-methyl-6-oxo-1,6-dihydropyridin-3-yl)-3-(trifluoromethyl)-1H-pyrazol-1-yl)-2-methylpropan-2-yl)amino)-1-oxopropan-2-yl)-2-(6-fluoro-1-methyl-1H-pyrazolo[4,3-b]pyridin-5-yl)cyclopropane-1-carboxamide], the Emax was 16.5 ± 0.234% and the EC50 was 108 nM.
For `Cc1nc(-c2cnc3nc(C4CC4)cn3c2)ccc1[C@H]1C[C@@]12CCN([C@H](Cc1cnn(C(F)F)c1)C(=O)NC(C)(C)Cn1nc(C(F)(F)F)cc1-c1cnc(C(C)(C)O)nc1)C2=O` [Example 158, (R)-2-((1R,3R)-1-(6-(2-cyclopropylimidazo[1,2-a]pyrimidin-6-yl)-2-methylpyridin-3-yl)-4-oxo-5-azaspiro[2.4]heptan-5-yl)-3-(1-(difluoromethyl)-1H-pyrazol-4-yl)-N-(1-(5-(2-(2-hydroxypropan-2-yl)pyrimidin-5-yl)-3-(trifluoromethyl)-1H-pyrazol-1-yl)-2-methylpropan-2-yl)propanamide], in that order: 102 ± 1.41% and 1.23 nM.
On the same counts, the results for `Cc1nc(-c2cnc3nc(C4CC4)cn3c2)ccc1[C@H]1C[C@@]12CCN([C@H](Cc1cnn(C(F)F)c1)C(=O)NC(C)(C)Cn1nc(C(F)(F)F)cc1-c1ccc(C(C)(C)O)nc1)C2=O` [Example 159, (R)-2-((1R,3R)-1-(6-(2-Cyclopropylimidazo[1,2-a]pyrimidin-6-yl)-2-methylpyridin-3-yl)-4-oxo-5-azaspiro[2.4]heptan-5-yl)-3-(1-(difluoromethyl)-1H-pyrazol-4-yl)-N-(1-(5-(6-(2-hydroxypropan-2-yl)pyridin-3-yl)-3-(trifluoromethyl)-1H-pyrazol-1-yl)-2-methylpropan-2-yl)propanamide] are 95.3 ± 3.03% and 0.397 nM.
On the same counts, the results for `COCc1cn2cc(-c3ccc([C@H]4C[C@@]45CCN([C@H](Cc4cnn(C(F)F)c4)C(=O)NC(C)(C)Cn4nc(C(F)(F)F)cc4-c4ccnc(C(C)(C)O)c4)C5=O)c(C)n3)cnc2n1` [Example 160, (R)-3-(1-(difluoromethyl)-1H-pyrazol-4-yl)-N-(1-(5-(2-(2-hydroxypropan-2-yl)pyridin-4-yl)-3-(trifluoromethyl)-1H-pyrazol-1-yl)-2-methylpropan-2-yl)-2-((1R,3R)-1-(6-(2-(methoxymethyl)imidazo[1,2-a]pyrimidin-6-yl)-2-methylpyridin-3-yl)-4-oxo-5-azaspiro[2.4]heptan-5-yl)propanamide] are 119 ± 3.76% and 1.24 nM.
Turning to `Cn1cc2cc(-c3ccc([C@H]4C[C@@]45CCN([C@H](Cc4cnn(C(F)F)c4)C(=O)NC(C)(C)Cn4nc(C(F)(F)F)cc4-c4ccn(C6CC6)c(=O)n4)C5=O)c(Cl)c3)cnc2n1` [Example 161, (R)-2-((1S,3R)-1-(2-chloro-4-(2-methyl-2H-pyrazolo[3,4-b]pyridin-5-yl)phenyl)-4-oxo-5-azaspiro[2.4]heptan-5-yl)-N-(1-(5-(1-cyclopropyl-2-oxo-1,2-dihydropyrimidin-4-yl)-3-(trifluoromethyl)-1H-pyrazol-1-yl)-2-methylpropan-2-yl)-3-(1-(difluoromethyl)-1H-pyrazol-4-yl)propanamide], the Emax worked out at 71.7 ± 1.02% and the EC50 amounted to 1.47 nM.
On the same counts, the results for `Cn1cc2cc(-c3ccc([C@H]4C[C@@]45CCN([C@H](Cc4cnn(C(F)F)c4)C(=O)NC(C)(C)Cn4nc(C(F)(F)F)cc4-c4ccc(P(C)(C)=O)cc4)C5=O)c(Cl)c3)cnc2n1` [Example 162, (R)-2-((1S,3R)-1-(2-chloro-4-(2-methyl-2H-pyrazolo[3,4-b]pyridin-5-yl)phenyl)-4-oxo-5-azaspiro[2.4]heptan-5-yl)-3-(1-(difluoro-methyl)-1H-pyrazol-4-yl)-N-(1-(5-(4-(dimethyl-phosphoryl)phenyl)-3-(trifluoro-methyl)-1H-pyrazol-1-yl)-2-methylpropan-2-yl)propanamide] are 50% and 0.179 nM.
